Target: T1, PRDX6 (peroxiredoxin 6) (Homo sapiens, UniProt P30041)
T1 construct: recombinant human PRDX6 (SinoBiological), immobilized on CM5 chip
T1 sequence (P30041 2-224): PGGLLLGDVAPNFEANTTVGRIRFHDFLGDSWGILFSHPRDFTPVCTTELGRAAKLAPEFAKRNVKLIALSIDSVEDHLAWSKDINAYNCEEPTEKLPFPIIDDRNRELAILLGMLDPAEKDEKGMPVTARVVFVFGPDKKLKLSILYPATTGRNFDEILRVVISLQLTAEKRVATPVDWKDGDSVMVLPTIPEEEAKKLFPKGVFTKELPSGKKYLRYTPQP
Test: SPR (Biacore T200); supported by MST (Kd […]), CETSA, DARTS, biotin-probe pulldown
Format: binding

In the case of `O=c1cc(-c2ccc(O)cc2)oc2cc(O)cc(O)c12` [apigenin, 4′,5,7‐trihydroxyflavone], the Kd is reported as 237 nM.

From paper PMC12120719, “Targeting Senescence with Apigenin Improves Chemotherapeutic Efficacy and Ameliorates Age‐Related Conditions in Mice” (Advanced Science, 2025)
